Test results reported in ChEMBL document CHEMBL5316326, “Discovery of a Novel Covalent EZH2 Inhibitor Based on Tazemetostat Scaffold for the Treatment of Ovarian Cancer” (J Med Chem, 2023).
Calls of active or inactive are those of the source. The calls are words filed in the database; no cut-off is given here.

Experiments:
[1] = system: MCF7; test: Antiproliferative activity against human MCF7 cells assessed as inhibition of cell proliferation incubated for 72 hrs by MTT assay; assay type: functional, cell-based; details: MCF7, 72 h
[2] = Antiproliferative activity against human COV362 cells assessed as inhibition of cell proliferation incubated for 72 hrs by MTT assay; assay type: functional, cell-based; details: COV362, 72 h
[3] = system: OAW-42; test: Antiproliferative activity against human OAW-42 cells assessed as inhibition of cell proliferation incubated for 72 hrs by MTT assay; assay type: functional, cell-based; details: OAW-42, 72 h
[4] = system: SK-OV-3; test: Antiproliferative activity against human SK-OV-3 cells assessed as inhibition of cell proliferation incubated for 72 hrs by MTT assay; assay type: functional, cell-based; details: SK-OV-3, 72 h
[5] = system: OVCAR-3; test: Antiproliferative activity against human OVCAR-3 cells assessed as inhibition of cell proliferation incubated for 72 hrs by MTT assay; assay type: functional, cell-based; details: OVCAR-3, 72 h
[6] = system: A549; test: Antiproliferative activity against human A549 cells assessed as inhibition of cell proliferation incubated for 72 hrs by MTT assay; assay type: functional, cell-based; details: A549, 72 h
[7] = system: BT-549; test: Antiproliferative activity against human BT-549 cells assessed as inhibition of cell proliferation incubated for 72 hrs by MTT assay; assay type: functional, cell-based; details: BT-549, 72 h
[8] = system: ES-2; test: Antiproliferative activity against human ES2 cells assessed as inhibition of cell proliferation incubated for 72 hrs by MTT assay; assay type: functional, cell-based; details: ES-2, 72 h
[9] = system: HEY; test: Antiproliferative activity against human HEY cells assessed as inhibition of cell proliferation incubated for 72 hrs by MTT assay; assay type: functional, cell-based
[10] = system: A2780; test: Antiproliferative activity against human A2780 cells assessed as inhibition of cell proliferation incubated for 72 hrs by MTT assay; assay type: functional, cell-based; details: A2780, 72 h
[11] = system: SK-BR-3; test: Antiproliferative activity against human SK-BR-3 cells assessed as inhibition of cell proliferation incubated for 72 hrs by MTT assay; assay type: functional, cell-based; details: SK-BR-3, 72 h
[12] = system: 4T1; test: Antiproliferative activity against mouse 4T1 cells assessed as inhibition of cell proliferation incubated for 72 hrs by MTT assay; assay type: functional, cell-based; details: 4T1, 72 h
[13] = system: NCI-H1703; test: Antiproliferative activity against human NCI-H1703 cells assessed as inhibition of cell proliferation incubated for 72 hrs by MTT assay; assay type: functional, cell-based; details: NCI-H1703, 72 h
[14] = system: PA-1; test: Antiproliferative activity against human PA-1 cells assessed as inhibition of cell proliferation incubated for 72 hrs by MTT assay; assay type: functional, cell-based; details: PA-1, 72 h
[15] = biological target: T1, Histone-lysine N-methyltransferase EZH2 (Homo sapiens, UniProt Q15910); test: Inhibition of wild type EZH2 (unknown origin) by AlphaLlSA assay
Target sequence in this assay (Q15910 whole entry, the tested form may be a part): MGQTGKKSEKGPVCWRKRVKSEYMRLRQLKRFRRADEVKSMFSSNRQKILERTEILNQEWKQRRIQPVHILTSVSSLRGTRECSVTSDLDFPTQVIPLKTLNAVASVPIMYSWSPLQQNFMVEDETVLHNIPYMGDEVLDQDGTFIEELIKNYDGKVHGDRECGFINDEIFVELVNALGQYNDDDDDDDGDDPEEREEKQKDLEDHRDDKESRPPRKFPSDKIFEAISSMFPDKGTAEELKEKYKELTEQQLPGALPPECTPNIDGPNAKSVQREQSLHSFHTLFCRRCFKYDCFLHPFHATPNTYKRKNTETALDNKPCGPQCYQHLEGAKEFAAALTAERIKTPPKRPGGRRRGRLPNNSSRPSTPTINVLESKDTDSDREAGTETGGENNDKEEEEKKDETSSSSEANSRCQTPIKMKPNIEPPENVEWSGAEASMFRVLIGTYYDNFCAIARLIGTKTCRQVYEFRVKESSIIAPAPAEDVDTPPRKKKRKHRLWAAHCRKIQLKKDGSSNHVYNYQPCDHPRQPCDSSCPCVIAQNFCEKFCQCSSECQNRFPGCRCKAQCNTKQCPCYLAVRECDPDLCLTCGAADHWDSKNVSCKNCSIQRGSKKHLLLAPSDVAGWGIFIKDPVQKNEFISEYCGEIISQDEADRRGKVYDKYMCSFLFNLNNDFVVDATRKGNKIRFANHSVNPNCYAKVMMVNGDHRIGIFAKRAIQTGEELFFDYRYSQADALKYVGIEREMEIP

[16] = biological target: T1, Histone-lysine N-methyltransferase EZH2; test: Binding affinity to wild type recombinant EZH2 (494 to 737 residues) (unknown origin) expressed in Escherichia coli assessed as adduct formation incubated for 2 hrs by LC-MS analysis
Target sequence in this assay (Q15910 whole entry, looked up, the tested form may be a part): as the sequence (Q15910 whole entry, the tested form may be a part) above

[17] = system: PA-1; test: Antiproliferative activity against human PA-1 cells assessed as reduction in cell viability at 10 uM incubated for 3 days followed by compound washout and measured after 4 days by microscopy analysis; assay type: functional, cell-based; details: time 3.0 day
[18] = system: PA-1; test: Antitumor activity against human PA-1 cells xenografted in BALB/C nude mouse assessed as tumor growth inhibition at 150 mg/kg,po BID for 21 days; assay type: functional; details: PA-1, 504 h, time 21 day, read-out: TGI
[19] = system: PA-1; test: Inhibition of colony formation in human PA-1 cells assessed as reduction in size of colonies at 0.25 to 10 uM incubated for 14 days with medium change every 3 days by crystal violet staining method; assay type: functional, cell-based; details: dose 0.25-10 µM, time 14.0 day
[20] = biological target: T1, Histone-lysine N-methyltransferase EZH2; test: Inhibition of EZH2 methyltransferase activity in human A2780 cells assessed as reduction in H3K27me3 level incubated for 3 days by Western blot analysis; assay type: cell-based
Target sequence in this assay (Q15910 whole entry, the tested form may be a part): as above

[21] = system: PA-1; test: Inhibition of colony formation in human PA-1 cells assessed as reduction in number of colonies at 0.25 to 10 uM incubated for 14 days with medium change every 3 days by crystal violet staining method; assay type: functional, cell-based; details: dose 0.25-10 µM, time 14.0 day
[22] = system: A2780; test: Inhibition of colony formation in human A2780 cells assessed as reduction in number of colonies at 0.25 to 10 uM incubated for 14 days with medium change every 3 days by crystal violet staining method; assay type: functional, cell-based; details: dose 0.25-10 µM, time 14.0 day
[23] = system: A2780; test: Inhibition of colony formation in human A2780 cells assessed as reduction in size of colonies at 0.25 to 10 uM incubated for 14 days with medium change every 3 days by crystal violet staining method; assay type: functional, cell-based; details: dose 0.25-10 µM, time 14.0 day

| Compound | IC50 [1] [µM] | IC50 [4] [µM] | IC50 [5] [µM] | IC50 [6] [µM] | IC50 [7] [µM] | IC50 [10] [µM] | IC50 [11] [µM] | IC50 [12] [µM] | IC50 [13] [µM] | IC50 [15] [µM] | IC50 [2] [µM] | IC50 [3] [µM] | IC50 [8] [µM] | IC50 [9] [µM] | IC50 [14] [µM] | further results |
| --- | --- | --- | --- | --- | --- | --- | --- | --- | --- | --- | --- | --- | --- | --- | --- | --- |
| CCOCCNC(=O)/C(C)=C/C[C@@]12OC(C)(C)C3C[C@@H](C=C4C(=O)c5c(O)c(C/C=C(\C)CCC=C(C)C)c(O)c(CC=C(C)C)c5O[C@]431)C2=O (single isomer, unassigned) | – | – | – | – | – | – | – | – | – | 1.1 | – | – | – | – | – | – |
| C=CC(=O)NCc1ccc(-c2cc(C(=O)NCc3c4c(c(C)[nH]c3=O)CCCC4)c(C)c(N(CC)C3CCOCC3)c2)cc1 | – | – | – | – | – | – | – | – | – | 0.0108 | – | – | – | – | – | Activity [16]: inactive |
| CCC(=O)Nc1cccc(-c2cc(C(=O)NCc3c(C)cc(C)[nH]c3=O)c(C)c(N(CC)C3CCOCC3)c2)c1 | > 100 | > 100 | > 100 | > 100 | > 100 | 34.4 | > 100 | 58.4 | > 100 | – | > 100 | > 100 | > 100 | > 100 | > 100 | – |
| CCC(=O)Nc1ccc(C)c(-c2cc(C(=O)NCc3c(C)cc(C)[nH]c3=O)c(C)c(N(CC)C3CCOCC3)c2)c1 | > 100 | > 100 | > 100 | > 100 | > 100 | 60.4 | > 100 | > 100 | 69 | 0.00301 | > 100 | > 100 | 89.5 | > 100 | 78.3 | inhibition [19]: Dose-Dependent Effect; Activity [17]: inactive; IC50 [20]: 4.72 µM; inhibition [21]: Dose-Dependent Effect; inhibition [22]: Dose-Dependent Effect; inhibition [23]: Dose-Dependent Effect; Activity [16]: inactive |

Now from value to molecule, other results behind:

| IC50 [1] [µM] | IC50 [4] [µM] | IC50 [5] [µM] | IC50 [6] [µM] | IC50 [7] [µM] | IC50 [10] [µM] | IC50 [11] [µM] | IC50 [12] [µM] | IC50 [13] [µM] | IC50 [15] [µM] | Compound | IC50 [2] [µM] | IC50 [3] [µM] | IC50 [8] [µM] | IC50 [9] [µM] | IC50 [14] [µM] | further results |
| --- | --- | --- | --- | --- | --- | --- | --- | --- | --- | --- | --- | --- | --- | --- | --- | --- |
| 18.8 | 68.4 | 29.8 | 23 | 23.3 | 12 | 15.5 | 10.4 | > 100 | – | CC[C@H](C)n1cc(C)c2c(C(=O)NCc3c(C)cc(C)[nH]c3=O)cc(-c3ccc(N4CCNCC4)nc3)cc21 [GSK2816126] | > 100 | 55.4 | 32.2 | > 100 | 12.2 | – |
| > 100 | 89.8 | > 100 | > 100 | 58.2 | 47 | 67.1 | 29.3 | > 100 | – | CCN(c1cc(-c2ccc(CN3CCOCC3)cc2)cc(C(=O)NCc2c(C)cc(C)[nH]c2=O)c1C)C1CCOCC1 [TAZEMETOSTAT] | > 100 | > 100 | 79 | > 100 | 46.6 | Activity [17]: inactive; inhibition in vivo at 150 mg/kg [18]: 56.8% |
| 63.3 | 41.8 | > 100 | 33.3 | 60.2 | 15.7 | 66.2 | 31 | 37.4 | 0.00164 | C=CC(=O)Nc1cccc(-c2cc(C(=O)NCc3c(C)cc(C)[nH]c3=O)c(C)c(N(CC)C3CCOCC3)c2)c1 | > 100 | > 100 | 38.6 | 66.7 | 24.7 | – |
